Source: the NIST ThermoML archive (doi:10.1021/je060139a)
± gives the expanded uncertainty stated by the source.

Experiment: xn = mol fraction of the nth substance listed
Settings: Wilhelmy plate method

CC(=O)OCc1ccccc1 [benzyl ethanoate] + CCO
surface tension liquid-gas (288.15 K, x1 = 0.05): 24 ± 0.4 mN/m
surface tension liquid-gas (288.15 K, x1 = 0.1): 24.8 ± 0.4 mN/m
surface tension liquid-gas (288.15 K, x1 = 0.15): 25.5 ± 0.4 mN/m
surface tension liquid-gas (288.15 K, x1 = 0.2): 26.1 ± 0.4 mN/m
surface tension liquid-gas (288.15 K, x1 = 0.25): 26.7 ± 0.4 mN/m
surface tension liquid-gas (288.15 K, x1 = 0.3): 27.3 ± 0.4 mN/m
surface tension liquid-gas (288.15 K, x1 = 0.35): 28 ± 0.4 mN/m
surface tension liquid-gas (288.15 K, x1 = 0.4): 28.7 ± 0.4 mN/m
surface tension liquid-gas (288.15 K, x1 = 0.45): 29.4 ± 0.4 mN/m
surface tension liquid-gas (288.15 K, x1 = 0.5): 30.1 ± 0.4 mN/m
surface tension liquid-gas (288.15 K, x1 = 0.55): 30.8 ± 0.4 mN/m
surface tension liquid-gas (288.15 K, x1 = 0.6): 31.5 ± 0.4 mN/m
surface tension liquid-gas (288.15 K, x1 = 0.65): 32.2 ± 0.4 mN/m
surface tension liquid-gas (288.15 K, x1 = 0.7): 32.9 ± 0.4 mN/m
surface tension liquid-gas (288.15 K, x1 = 0.75): 33.62 ± 0.4 mN/m
surface tension liquid-gas (288.15 K, x1 = 0.8): 34.4 ± 0.4 mN/m
surface tension liquid-gas (288.15 K, x1 = 0.85): 35.2 ± 0.41 mN/m
surface tension liquid-gas (288.15 K, x1 = 0.9): 36.1 ± 0.41 mN/m
surface tension liquid-gas (288.15 K, x1 = 0.95): 36.9 ± 0.41 mN/m
surface tension liquid-gas (288.15 K, x1 = 1): 37.7 ± 0.41 mN/m
surface tension liquid-gas (298.18 K, x1 = 0.05): 23.2 ± 0.4 mN/m
surface tension liquid-gas (298.18 K, x1 = 0.1): 23.9 ± 0.4 mN/m
surface tension liquid-gas (298.18 K, x1 = 0.15): 24.57 ± 0.4 mN/m
surface tension liquid-gas (298.18 K, x1 = 0.2): 25.18 ± 0.4 mN/m
surface tension liquid-gas (298.18 K, x1 = 0.25): 25.77 ± 0.4 mN/m
surface tension liquid-gas (298.18 K, x1 = 0.3): 26.36 ± 0.4 mN/m
surface tension liquid-gas (298.18 K, x1 = 0.35): 27.02 ± 0.4 mN/m
surface tension liquid-gas (298.18 K, x1 = 0.4): 27.69 ± 0.4 mN/m
surface tension liquid-gas (298.18 K, x1 = 0.45): 28.37 ± 0.4 mN/m
surface tension liquid-gas (298.18 K, x1 = 0.5): 29.02 ± 0.4 mN/m
surface tension liquid-gas (298.18 K, x1 = 0.55): 29.69 ± 0.4 mN/m
surface tension liquid-gas (298.18 K, x1 = 0.6): 30.36 ± 0.4 mN/m
surface tension liquid-gas (298.18 K, x1 = 0.65): 31.02 ± 0.4 mN/m
surface tension liquid-gas (298.18 K, x1 = 0.7): 31.68 ± 0.4 mN/m
surface tension liquid-gas (298.18 K, x1 = 0.75): 32.37 ± 0.4 mN/m
surface tension liquid-gas (298.18 K, x1 = 0.8): 33.08 ± 0.4 mN/m
surface tension liquid-gas (298.18 K, x1 = 0.85): 33.92 ± 0.4 mN/m
surface tension liquid-gas (298.18 K, x1 = 0.9): 34.8 ± 0.41 mN/m
surface tension liquid-gas (298.18 K, x1 = 0.95): 35.6 ± 0.41 mN/m
surface tension liquid-gas (298.18 K, x1 = 1): 36.4 ± 0.41 mN/m
surface tension liquid-gas (308.15 K, x1 = 0.05): 22.3 ± 0.4 mN/m
surface tension liquid-gas (308.15 K, x1 = 0.1): 23 ± 0.4 mN/m
surface tension liquid-gas (308.15 K, x1 = 0.15): 23.63 ± 0.4 mN/m
surface tension liquid-gas (308.15 K, x1 = 0.2): 24.23 ± 0.4 mN/m
surface tension liquid-gas (308.15 K, x1 = 0.25): 24.83 ± 0.4 mN/m
surface tension liquid-gas (308.15 K, x1 = 0.3): 25.43 ± 0.4 mN/m
surface tension liquid-gas (308.15 K, x1 = 0.35): 26.07 ± 0.4 mN/m
surface tension liquid-gas (308.15 K, x1 = 0.4): 26.72 ± 0.4 mN/m
surface tension liquid-gas (308.15 K, x1 = 0.45): 27.38 ± 0.4 mN/m
surface tension liquid-gas (308.15 K, x1 = 0.5): 28.03 ± 0.4 mN/m
surface tension liquid-gas (308.15 K, x1 = 0.55): 28.67 ± 0.4 mN/m
surface tension liquid-gas (308.15 K, x1 = 0.6): 29.3 ± 0.4 mN/m
surface tension liquid-gas (308.15 K, x1 = 0.65): 29.94 ± 0.4 mN/m
surface tension liquid-gas (308.15 K, x1 = 0.7): 30.58 ± 0.4 mN/m
surface tension liquid-gas (308.15 K, x1 = 0.75): 31.24 ± 0.4 mN/m
surface tension liquid-gas (308.15 K, x1 = 0.8): 31.93 ± 0.4 mN/m
surface tension liquid-gas (308.15 K, x1 = 0.85): 32.8 ± 0.4 mN/m
surface tension liquid-gas (308.15 K, x1 = 0.9): 33.7 ± 0.41 mN/m
surface tension liquid-gas (308.15 K, x1 = 0.95): 34.5 ± 0.41 mN/m
surface tension liquid-gas (308.15 K, x1 = 1): 35.3 ± 0.41 mN/m
surface tension liquid-gas (318.15 K, x1 = 0.05): 21.3 ± 0.4 mN/m
surface tension liquid-gas (318.15 K, x1 = 0.1): 22 ± 0.4 mN/m
surface tension liquid-gas (318.15 K, x1 = 0.15): 22.6 ± 0.4 mN/m
surface tension liquid-gas (318.15 K, x1 = 0.2): 23.2 ± 0.4 mN/m
surface tension liquid-gas (318.15 K, x1 = 0.25): 23.8 ± 0.4 mN/m
surface tension liquid-gas (318.15 K, x1 = 0.3): 24.4 ± 0.4 mN/m
surface tension liquid-gas (318.15 K, x1 = 0.35): 25.03 ± 0.4 mN/m
surface tension liquid-gas (318.15 K, x1 = 0.4): 25.66 ± 0.4 mN/m
surface tension liquid-gas (318.15 K, x1 = 0.45): 26.3 ± 0.4 mN/m
surface tension liquid-gas (318.15 K, x1 = 0.5): 26.93 ± 0.4 mN/m
surface tension liquid-gas (318.15 K, x1 = 0.55): 27.56 ± 0.4 mN/m
surface tension liquid-gas (318.15 K, x1 = 0.6): 28.17 ± 0.4 mN/m
surface tension liquid-gas (318.15 K, x1 = 0.65): 28.78 ± 0.4 mN/m
surface tension liquid-gas (318.15 K, x1 = 0.7): 29.41 ± 0.4 mN/m
surface tension liquid-gas (318.15 K, x1 = 0.75): 30.06 ± 0.4 mN/m
surface tension liquid-gas (318.15 K, x1 = 0.8): 30.75 ± 0.4 mN/m
surface tension liquid-gas (318.15 K, x1 = 0.85): 31.6 ± 0.4 mN/m
surface tension liquid-gas (318.15 K, x1 = 0.9): 32.45 ± 0.4 mN/m
surface tension liquid-gas (318.15 K, x1 = 0.95): 33.3 ± 0.41 mN/m
surface tension liquid-gas (318.15 K, x1 = 1): 34.1 ± 0.41 mN/m
